For ten compounds, IC50 results are on record in US20220251141A1, “IMMUNOMODULATORS” (Bristol-Myers Squibb Company, priority 2019, published 2022).

Numbered stars: 1 amine (or outer) side, 2 acyl side, 3 side chain; on linkers, the order of the positions; unused ones are H or OH. Bridge positions count the residues as written; N and C are the ends. Square brackets hold non-standard residues; d marks the D form. Side chains are listed from the residue outwards. Peptide text beside a SMILES is read from it. * marks the point of attachment. X6 = CC(C)C[C@H](N[*:1])C(=O)C1C[C@H](O)C[C@H]1C(=O)[*:2]; Trp(1-CH2CO2Me) = COC(=O)Cn1cc(C[C@H](N)C(=O)O)c2ccccc21; Trp(1-CH2COOH) = N[C@@H](Cc1cn(CC(=O)O)c2ccccc12)C(=O)O; Trp(1-Me) = Cn1cc(C[C@H](N)C(=O)O)c2ccccc21; X2 = C/C(=N\C#N)NC[C@H](N[*:1])C(=O)[*:2]; Phe(4-F) = N[C@@H](Cc1ccc(F)cc1)C(=O)O; Dab(CONH2) = NC(=O)NCC[C@H](N)C(=O)O; X8 = N#CNC[C@H](N[*:1])C(=O)[*:2]; Hyp = O=C(O)[C@@H]1C[C@@H](O)CN1; NMeNle = CCCC[C@H](NC)C(=O)O; Ethoxycarbonyl = CCOC(=O)*; Pip = O=C(O)[C@@H]1CCCCN1; NMeA = CN[C@@H](C)C(=O)O; Dab = NCC[C@H](N)C(=O)O; Dap = NC[C@H](N)C(=O)O; Boc = CC(C)(C)OC(=O)*; CO = O=C([*:1])[*:2]; Piv = CC(C)(C)C(=O)*; N(Me)OMe = CON(C)*

In this experiment the target is T1, PD-1/PD-L1 (Homo sapiens, UniProt Q9NZQ7).
T1 construct: TVMV protease site linker (C); made in house; host or cells: HEK293T cells
Nature of the experiment: PD-1/PD-L1 Homogenous Time-Resolved Fluorescence (HTRF) binding assay. To be noted: PD-L1-His 10 nM final, PD-1-Ig 20 nM final; inhibitors pre-incubated with PD-L1-His for 15 m. The essentials: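 Compounds pre-incubated 15 min with human PD-L1(18-239)-His (10 nM final), then PD-1(25-167)-Ig (20 nM final) added for 15 min, in dPBS with 0.1% BSA and 0.05% Tween-20. Eu-cryptate anti-Ig (1 nM) and APC anti-His (20 nM) added, 30 min equilibration, 665/620 nm ratio read; IC50 reported.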
(In general: TR-FRET usually uses a lanthanide donor and a delayed reading to cut background.)
In general, IC50 refers to the concentration that gives 50% inhibition. Low values mean greater potency in that assay, high ones weaker potency in that assay. `CCCC[C@H]1C(=O)N(C)[C@@H](CCCC)C(=O)N[C@@H](CC(C)C)C(=O)N[C@H](C(=O)NCC(N)=O)CSCC(=O)N[C@@H](Cc2ccc(O)cc2)C(=O)N(C)[C@@H](C)C(=O)N[C@@H](CC(N)=O)C(=O)N2CCC[C@H]2C(=O)N[C@@H](CNC(=O)OCC)C(=O)N[C@@H](CC(C)C)C(=O)N2C[C@H](O)C[C@H]2C(=O)N[C@@H](Cc2c[nH]c3ccccc23)C(=O)N[C@@H](CCNC(=O)OCC)C(=O)N[C@@H](Cc2cn(CC(=O)OC)c3ccccc23)C(=O)N1C` [Example 1010] ({CH2CO}-Y[NMeA]NP[Dap](Ethoxycarbonyl)L[Hyp]W[Dab](Ethoxycarbonyl)[Trp(1-CH2CO2Me)][NMeNle][NMeNle]LCG-NH2; thioether N-14) returned an IC50 of 3.9 nM. With `CCCC[C@H]1C(=O)N(C)[C@@H](CCCC)C(=O)N[C@@H](CCC(=O)O)C(=O)N[C@H](C(N)=O)CSCC(=O)N[C@@H](Cc2ccc(F)cc2)C(=O)N2CCCC[C@H]2C(=O)N[C@@H](CC(N)=O)C(=O)N2CCC[C@H]2C(=O)N[C@@H](CNC(=O)C(C)(C)C)C(=O)N[C@@H](CC(C)C)C(=O)N2CCC[C@H]2C(=O)N[C@@H](Cc2c[nH]c3ccccc23)C(=O)N[C@@H](CCN)C(=O)N[C@@H](Cc2cn(CC(=O)O)c3ccccc23)C(=O)N1C` [Example 20110] ({CH2CO}-[Phe(4-F)][Pip]NP[Dap](Piv)LPW[Dab][Trp(1-CH2COOH)][NMeNle][NMeNle]EC-NH2; thioether N-14) the figure was 11.7 nM; with `CCCC[C@H]1C(=O)N(C)[C@@H](CCCC)C(=O)N[C@@H](CC(C)C)C(=O)N[C@H](C(N)=O)CSCC(=O)N[C@@H](Cc2ccc(F)cc2)C(=O)N2CCCC[C@H]2C(=O)N[C@@H](CC(=O)O)C(=O)N2CCC[C@H]2C(=O)N[C@@H](CNC(=O)OC(C)(C)C)C(=O)N[C@@H](CC(C)C)C(=O)N2C[C@H](O)C[C@H]2C(=O)N[C@@H](Cc2c[nH]c3ccccc23)C(=O)N[C@@H](CCNC(=O)OC(C)(C)C)C(=O)N[C@@H](Cc2cn(CC(=O)O)c3ccccc23)C(=O)N1C` [Example 20020] ({CH2CO}-[Phe(4-F)][Pip]DP[Dap](Boc)L[Hyp]W[Dab](Boc)[Trp(1-CH2COOH)][NMeNle][NMeNle]LC-NH2; thioether N-14), 6.9 nM. With `CCCC[C@H]1C(=O)N(C)[C@@H](CCCC)C(=O)N[C@@H](CC(C)C)C(=O)N[C@H](C(=O)NCC(N)=O)CSCC(=O)N[C@@H](Cc2ccc(O)cc2)C(=O)N(C)[C@@H](C)C(=O)N[C@@H](CC(N)=O)C(=O)N2CCC[C@H]2C(=O)N[C@@H](CN/C(C)=N/C#N)C(=O)N[C@@H](CC(C)C)C(=O)N2C[C@H](O)C[C@H]2C(=O)N[C@@H](Cc2c[nH]c3ccccc23)C(=O)N[C@@H](CCN)C(=O)N[C@@H](Cc2cn(CC(=O)O)c3ccccc23)C(=O)N1C` [Example 1009] ({CH2CO}-Y[NMeA]NP[X2]L[Hyp]W[Dab][Trp(1-CH2COOH)][NMeNle][NMeNle]LCG-NH2; thioether N-14) the figure was 5.5 nM; with `CCCC[C@H]1C(=O)N(C)[C@@H](CCCC)C(=O)N[C@@H](CCC(N)=O)C(=O)N[C@H](C(N)=O)CSCC(=O)N[C@@H](Cc2ccc(F)cc2)C(=O)N2CCCC[C@H]2C(=O)N[C@@H](CC(=O)O)C(=O)N2CCC[C@H]2C(=O)N[C@@H](CNC(=O)C(C)(C)C)C(=O)N[C@@H](CCCCN)C(=O)N2C[C@H](O)C[C@H]2C(=O)N[C@@H](Cc2c[nH]c3ccccc23)C(=O)N[C@@H](CCN)C(=O)N[C@@H](Cc2cn(C)c3ccccc23)C(=O)N1C` [Example 20240] ({CH2CO}-[Phe(4-F)][Pip]DP[Dap](Piv)K[Hyp]W[Dab][Trp(1-Me)][NMeNle][NMeNle]QC-NH2; thioether N-14), 18.4 nM. With `CCCC[C@H]1C(=O)N(C)[C@@H](CCCC)C(=O)N[C@@H](CC(C)C)C(=O)N[C@H](C(=O)NCC(N)=O)CSCC(=O)N[C@@H](Cc2ccc(O)cc2)C(=O)N(C)[C@@H](C)C(=O)N[C@@H](CC(N)=O)C(=O)N2CCC[C@H]2C(=O)N[C@@H](CNC(=O)N(C)OC)C(=O)N[C@@H](CC(C)C)C(=O)N2C[C@H](O)C[C@H]2C(=O)N[C@@H](Cc2c[nH]c3ccccc23)C(=O)N[C@@H](CCNC(=O)N(C)OC)C(=O)N[C@@H](Cc2cn(CC(=O)OC)c3ccccc23)C(=O)N1C` [Example 1036] ({CH2CO}-Y[NMeA]NP[Dap]([CO-N(Me)OMe])L[Hyp]W[Dab]([CO-N(Me)OMe])[Trp(1-CH2CO2Me)][NMeNle][NMeNle]LCG-NH2; thioether N-14), the IC50 came to 1.4 nM. Compared with the last compound, the IC50 is about 13-fold lower. In turn, `CCCC[C@H]1C(=O)N(C)[C@@H](CCCC)C(=O)N[C@@H](CC(C)C)C(=O)N[C@H](C(=O)NCC(N)=O)CSCC(=O)N[C@@H](Cc2ccc(O)cc2)C(=O)N(C)[C@@H](C)C(=O)N[C@@H](CC(N)=O)C(=O)N2CCC[C@H]2C(=O)N[C@@H](CNC(=O)OC(C)(C)C)C(=O)N[C@@H](CC(C)C)C(=O)N2C[C@H](O)C[C@H]2C(=O)N[C@@H](Cc2c[nH]c3ccccc23)C(=O)N[C@@H](CCNC(N)=O)C(=O)N[C@@H](Cc2cn(CC(=O)O)c3ccccc23)C(=O)N1C` [Example 1018] ({CH2CO}-Y[NMeA]NP[Dap](Boc)L[Hyp]W[Dab(CONH2)][Trp(1-CH2COOH)][NMeNle][NMeNle]LCG-NH2; thioether N-14) showed an IC50 of 2.9 nM. `CCCC[C@H]1C(=O)N(C)[C@@H](CCCC)C(=O)N[C@@H](CCC(=O)O)C(=O)N[C@H](C(N)=O)CSCC(=O)N[C@@H](Cc2ccc(F)cc2)C(=O)N2CCCC[C@H]2C(=O)N[C@@H](CC(=O)O)C(=O)N2CCC[C@H]2C(=O)N[C@@H](CNC(=O)C(C)(C)C)C(=O)N[C@@H](CC(C)C)C(=O)N2C[C@H](O)C[C@H]2C(=O)N[C@@H](Cc2c[nH]c3ccccc23)C(=O)N[C@@H](CCNC(=O)C(C)(C)C)C(=O)N[C@@H](Cc2cn(CC(=O)O)c3ccccc23)C(=O)N1C` [Example 20070] ({CH2CO}-[Phe(4-F)][Pip]DP[Dap](Piv)L[Hyp]W[Dab](Piv)[Trp(1-CH2COOH)][NMeNle][NMeNle]EC-NH2; thioether N-14) registered an IC50 of 10.5 nM. Under `CCCC[C@H]1C(=O)N(C)[C@@H](CCCC)C(=O)N[C@@H](CC(C)C)C(=O)N[C@H](C(=O)NCC(N)=O)CSCC(=O)N[C@@H](Cc2ccc(O)cc2)C(=O)N(C)[C@@H](C)C(=O)N[C@@H](CC(N)=O)C(=O)N2CCC[C@H]2C(=O)N[C@@H](CNC(=O)OC(C)(C)C)C(=O)N[C@@H](CC(C)C)C(=O)C2C[C@H](O)C[C@H]2C(=O)N[C@@H](Cc2c[nH]c3ccccc23)C(=O)N[C@@H](CCNC(=O)OC(C)(C)C)C(=O)N[C@@H](Cc2cn(CC(=O)OC)c3ccccc23)C(=O)N1C` (stereo partly shown) [Example 2002] ({CH2CO}-Y[NMeA]NP[Dap](Boc)[X6]W[Dab](Boc)[Trp(1-CH2CO2Me)][NMeNle][NMeNle]LCG-NH2; thioether N-13) stands 1.2 nM.

In turn, `CCCC[C@H]1C(=O)N(C)[C@@H](CCCC)C(=O)N[C@@H](CC(C)C)C(=O)N[C@H](C(=O)NCC(N)=O)CSCC(=O)N[C@@H](Cc2ccc(O)cc2)C(=O)N(C)[C@@H](C)C(=O)N[C@@H](CC(N)=O)C(=O)N2CCC[C@H]2C(=O)N[C@@H](CNC#N)C(=O)N[C@@H](CC(C)C)C(=O)N2C[C@H](O)C[C@H]2C(=O)N[C@@H](Cc2c[nH]c3ccccc23)C(=O)N[C@@H](CCN)C(=O)N[C@@H](Cc2cn(CC(=O)O)c3ccccc23)C(=O)N1C` [Example 1021] ({CH2CO}-Y[NMeA]NP[X8]L[Hyp]W[Dab][Trp(1-CH2COOH)][NMeNle][NMeNle]LCG-NH2; thioether N-14) had a half-maximal inhibitory concentration (IC50) of 52 nM. Compared with the last compound, the IC50 is about 43-fold higher.
